Measurements as given in PMC2730737 (Biochemistry, 2009).
Positions count from the first letter of the chain named.

Legend:
AdoMetDC F223A mutant = target: T1, AdoMetDC F223A mutant (Homo sapiens, UniProt P17707, F223A); assay: Stopped-flow intrinsic protein fluorescence binding kinetics, F223A mutant; details: single exponential fit
T1 sequence (P17707 1-67 limits assumed): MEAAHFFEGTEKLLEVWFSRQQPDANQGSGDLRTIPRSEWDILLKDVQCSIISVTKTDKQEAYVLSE
T1 sequence (P17707 68-334 F223A limits assumed): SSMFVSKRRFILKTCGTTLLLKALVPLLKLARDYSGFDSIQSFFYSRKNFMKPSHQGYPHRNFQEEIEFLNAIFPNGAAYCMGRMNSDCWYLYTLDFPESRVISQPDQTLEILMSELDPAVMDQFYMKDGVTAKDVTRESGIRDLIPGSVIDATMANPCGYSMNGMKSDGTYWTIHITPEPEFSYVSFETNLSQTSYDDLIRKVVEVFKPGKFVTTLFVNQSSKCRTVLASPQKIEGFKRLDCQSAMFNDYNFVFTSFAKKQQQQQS

[1] = modeling studies using NMR constraints, molecular mechanics; cited from earlier work
WT AdoMetDC = target: T2, WT AdoMetDC (Homo sapiens, UniProt P17707); assay: Stopped-flow intrinsic protein fluorescence binding kinetics, WT AdoMetDC; details: for intrinsic fluorescence change on rapid mixing with AdoMetDC: stopped-flow, excitation 298 nm, emission 340 nm
T2 sequence (P17707 1-67 limits assumed): T1 sequence (P17707 1-67 limits assumed)
T2 sequence (P17707 68-334 limits assumed): T1 sequence (P17707 68-334 F223A limits assumed) with A156F

AdoMetDC = target: T3, AdoMetDC (Homo sapiens, UniProt P17707); details: cited from earlier work
T3 sequence (P17707 1-67 limits assumed): T1 sequence (P17707 1-67 limits assumed)
T3 sequence (P17707 68-334 limits assumed): T1 sequence (P17707 68-334 F223A limits assumed) with A156F

k1 (slope) (AdoMetDC F223A mutant) | k−1 (y-intercept) (AdoMetDC F223A mutant) | k2 + k−2 (WT AdoMetDC; WT enzyme, hyperbolic fit of slow phase) | k−1 (WT AdoMetDC; WT enzyme, linear fit of fast phase, 25 °C, pH 7.5) | intrinsic fluorescence change on rapid mixing with AdoMetDC (WT AdoMetDC) | Structure (SMILES) | energy difference between the anti and syn conformations in solution [1] | IC50 (AdoMetDC)
– | – | – | – | too weak to measure | C[S+](C)C[C@H]1O[C@@H](n2cnc3c(N)ncnc32)[C@H](O)[C@@H]1O [MMTA, 5′-deoxy-5′-(dimethylsulfonio)adenosine] | – | 15 µM
– | – | – | – | no significant change | Nc1ncnc2c1ncn2[C@@H]1O[C@H](CSCC[C@H](N)C(=O)O)[C@@H](O)[C@H]1O [SAH, S-adenosylhomocysteine] | – | –

Structure (SMILES) | k1 (slope) (AdoMetDC F223A mutant) | k−1 (y-intercept) (AdoMetDC F223A mutant) | k2 + k−2 (WT AdoMetDC; WT enzyme, hyperbolic fit of slow phase) | k−1 (WT AdoMetDC; WT enzyme, linear fit of fast phase, 25 °C, pH 7.5) | intrinsic fluorescence change on rapid mixing with AdoMetDC (WT AdoMetDC) | energy difference between the anti and syn conformations in solution [1] | IC50 (AdoMetDC)
C[S+](CC[C@H](N)C(=O)[O-])C[C@H]1O[C@@H](n2cnc3c(N)ncnc32)[C@H](O)[C@@H]1O (stereo partly drawn) [AdoMet, S-adenosylmethionine] | 1.7 ± 0.3 × 10^−4 μM^−1s^−1 | 2.4 ± 0.2 s⁻¹ | 3.7 ± 0.2 s⁻¹ | 33 ± 2 s⁻¹ | intrinsic fluorescence change was observed | -34 kcal/mol | –
